These results are taken from patent publication US20230031406A1, “COMPOUNDS AND COMPOSITIONS FOR TREATING CONDITIONS ASSOCIATED WITH NLRP ACTIVITY” (Novartis AG, priority 2018, published 2023).

Like-named read-outs stand apart in the source and are kept apart here.

The test system of the test is PMA-differentiated THP-1 cells. In words: IL-1β production in PMA-differentiated THP-1 cells stimulated with gramicidin (hTHP-1 assay containing 2% fetal bovine serum; Procedures 1 and 2). Type of test: cell-based, human. As to conditions: 2% fetal bovine serum. The method, boiled down: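 Secreted IL-1β, read by HTRF, after gramicidin challenge (5 μM, 2 h) of THP-1 cells differentiated with PMA (20 ng/ml, 16-18 h) and plated at 50,000 cells/well in 2% FBS medium. Compounds, 0.0017-100 μM final with 0.37% DMSO, were added 1 h before stimulation.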

Where [1] appears, read: Table B2, class symbols, read-out: hTHP-1 IC50.
[2] abbreviates: Homo sapiens, THP-1, Table B4, class symbols, read-out: hTHP-1 IC50.
The mark [3] stands for this setting: Homo sapiens, THP-1, Table B3, hTHP-1 assay, class symbols, read-out: IC50.
[4] abbreviates: Homo sapiens, THP-1, Table B1, class symbols, read-out: Average IC50 of compounds in hTHP-1 assay: hTHP-1 IC50.
[5] abbreviates: Table B1, class symbols, read-out: Average IC50 of compounds in hTHP-1 assay: hTHP-1 IC50.
The mark [6] stands for this setting: Homo sapiens, THP-1, Table B2, numeric bounds, read-out: hTHP-1 IC50.
The mark [7] stands for this setting: Homo sapiens, THP-1, Table B2, class symbols, read-out: hTHP-1 IC50.

The term IC50 denotes the point on the concentration scale where inhibition reaches its midpoint. For the molecule `CCC1CCc2c1nc1c(c2NC(=O)N=S(N)(=O)c2ccn(C(F)F)n2)CCC1` (stereo not shown) [Compound 668, 1-(Difluoromethyl)-N′-((3-ethyl-1,2,3,5,6,7-hexahydrodicyclopenta[b,e]pyridin-8-yl)carbamoyl)-1H-pyrazole-3-sulfonimidamide], under setting [1], the IC50 is 5 to 30 µM.
In the case of `Cc1c(C(C)C)nc2c(c1NC(=O)N=S(N)(=O)c1cc(C(C)(C)O)cs1)CCC2` (single isomer, unassigned) [Compound 681b, (R) or (S)-4-(2-Hydroxypropan-2-yl)-N′-((2-isopropyl-3-methyl-6,7-dihydro-5H-cyclopenta[b]pyridin-4-yl)carbamoyl) thiophene-2-sulfonimidamide], the IC50 under setting [1] lay in the range of 0.2 to 1 µM.
For the molecule `C[C@H]1CCc2c1nc1c(c2NC(=O)N=S(N)(=O)c2cnc([C@@](C)(O)CO)s2)CCC1` (single isomer, unassigned) [Example 729], under setting [2], the IC50 lay in the range of 1 to 5 µM.
With `CC(C)(O)c1csc(S(N)(=O)=NC(=O)Nc2cc(C(F)(F)F)nc3c2CCC3)c1` (single isomer, unassigned) [Example 667, (R) or (S)-4-(2-hydroxypropan-2-yl)-N′-((2-(trifluoromethyl)-6,7-dihydro-5H-cyclopenta[b]pyridin-4-yl)carbamoyl)thiophene-2-sulfonimidamide], the IC50 under setting [3] was 1 to 5 µM.
For the molecule `CCc1c(C)nc2c(c1NC(=O)N=S(N)(=O)c1cnc(C(C)(C)O)s1)CCC2` (single isomer, unassigned) [Compound 117b, (R) or (S)-N′-((3-ethyl-2-methyl-6,7-dihydro-5H-cyclopenta[b]pyridin-4-yl)carbamoyl)-2-(2-hydroxypropan-2-yl)thiazole-5-sulfonimidamide], the IC50 under setting [4] was 5 to 30 µM.
As to `CC1CCc2c1nc1c(c2NC(=O)N=S(N)(=O)c2cc(C(C)(C)O)cs2)CCC1C` [Compound 131b, (S) and (S,R,R) and (S,S,S)-N′-((3,5-dimethyl-1,2,3,5,6,7-hexahydro-dicyclopenta[b,e]py-ridin-8-yl)carbamoyl)-4-(2-hydroxypropan-2-yl)thiophene-2-sulfonimidamide], the IC50 under setting [5] is 5 to 30 µM.
Turning to `CC(C)(O)c1ccc(S(N)(=O)=NC(=O)Nc2c3c(nc4c2CCC4(C)C)CCC3)cn1` (single isomer, unassigned) [Compound 673b, (S) or (R)-N′-((3,3-dimethyl-1,2,3,5,6,7-hexahydrodicyclopenta [b,e]pyridin-8-yl)carbamoyl)-6-(2-hydroxypropan-2-yl)pyridine-3-sulfonimidamide], the IC50 under setting [6] was above 30 µM.
Consider `CC(C)c1c(-c2ccccc2)nc2c(c1NC(=O)N=S(N)(=O)c1cnc(C(C)(C)O)s1)CCC2` (stereo not shown) [Compound 145, 2-(2-hydroxypropan-2-yl)-N′-((3-isopropyl-2-phenyl-6,7-dihydro-5H-cyclopenta[b]pyridin-4-yl)carbamoyl)thiazole-5-sulfonimidamide], for which, under setting [4], the IC50 fell in the range of 5 to 30 µM.
In the case of `CC1(C)CCc2c1nc1c(c2NC(=O)N=S(N)(=O)c2cnn3c2OC[C@H](O)C3)CCC1` (stereo partly drawn) [Example 603, (6R)-N′-((3,3-dimethyl-1,2,3,5,6,7-hexahydrodicyclopenta[b,e]pyridin-8-yl)carbamoyl)-6-hydroxy-6,7-dihydro-5H-pyrazolo[5,1-b][1,3]oxazine-3-sulfonimidamide], the IC50 under setting [3] lay in the range of 1 to 5 µM.
`C[C@@H]1CCc2c1nc1c(c2NC(=O)N=S(N)(=O)c2ccn(C)n2)CCC1` (single isomer, unassigned) [Compound 639b, (R) or (S)-1-Methyl-N′-(((R)-3-methyl-1,2,3,5,6,7-hexahydrodicyclopenta [b,e]pyridin-8-yl)carbamoyl)-1H-pyrazole-3-sulfonimidamide]: under setting [7], the IC50 was in the range of 0.2 to 1 µM.
On the same count and under the same terms, the value for `Cc1c(C2CC2)nc2c(c1NC(=O)N=S(N)(=O)c1ccn(C(F)F)n1)CCC2` (single isomer, unassigned) [Compound 676b, (R) or (S)-N′-((2-cyclopropyl-3-methyl-6,7-dihydro-5H-cyclopenta[b]pyridin-4-yl)carbamoyl)-1-(difluoromethyl)-1H-pyrazole-3-sulfonimidamide] was 1 to 5 µM; that for `Cc1c(C2CCC2)nc2c(c1NC(=O)N=S(N)(=O)c1cnc(C(C)(C)O)s1)CCC2` (single isomer, unassigned) [Compound 649a, (R) or (S)-N′-((2-cyclobutyl-3-methyl-6,7-dihydro-5H-cyclopenta[b]pyridin-4-yl)carbamoyl)-2-(2-hydroxypropan-2-yl)thiazole-5-sulfonimidamide] was 5 to 30 µM; that for `C[C@@H]1CCc2c1nc1c(c2NC(=O)N=S(N)(=O)c2ncc(C(C)(C)O)s2)CCC1` (stereo partly drawn) [Compound 140c, 5-(2-Hydroxypropan-2-yl)-N′-(((R)-3-methyl-1,2,3,5,6,7-hexahydrodicyclopenta[b,e]pyridin-8-yl)carbamoyl)thiazole-2-sulfonimidamide] was 0.2 to 1 µM.
Still for that read-out and setting: then `CC(C)(O)c1cc(C#N)cc(S(N)(=O)=NC(=O)Nc2c3c(nc4c2CCC4(C)C)CCC3)c1` (single isomer, unassigned) [Compound 674b, (R) or (S)-3-Cyano-N′-((3,3-dimethyl-1,2,3,5,6,7-hexahydrodicyclopenta [b,e]pyridin-8-yl)carbamoyl)-5-(2-hydroxypropan-2-yl)benzene-sulfonimidamide], with 1 to 5 µM.
For the molecule `CC1Cc2nc3c(c(NC(=O)N=S(N)(=O)c4cnc(C(C)(C)O)s4)c2C1)CCC3` (stereo not shown) [Compound 152, 2-(2-hydroxypropan-2-yl)-N′-((2-methyl-1,2,3,5,6,7-hexahydrodicyclopenta[b,e]pyridin-8-yl)carbamoyl)thiazole-5-sulfonimidamide], the IC50 under setting [4] fell in the range of 0.2 to 1 µM.
Turning to `CCn1cc(F)c(S(N)(=O)=NC(=O)Nc2c3c(nc(C)c2-c2ccccc2)CCC3)n1` (stereo not shown) [Example 741, 1-Ethyl-4-fluoro-N′-((2-methyl-3-phenyl-6,7-dihydro-5H-cyclopenta[b]pyridin-4-yl)carbamoyl)-1H-pyrazole-3-sulfonimidamide], the IC50 under setting [2] was 0.04 to 0.2 µM.
Consider `CC1(C)CCc2c1nc1c(c2NC(=O)N=S(N)(=O)c2ccn(C(F)F)n2)CCC1` (single isomer, unassigned) [Compound 122a, (R) or (S)-1-(difluoromethyl)-N′-((3,3-dimethyl-1,2,3,5,6,7-hexahydrodicyclo-penta[b,e]pyridin-8-yl)carbamoyl)-1H-pyrazole-3-sulfonimidamide], for which the IC50 under setting [5] lay within 0.04 to 0.2 µM.
For `CC1CCc2c1nc1c(c2NC(=O)N=S(N)(=O)c2sc(C(C)(C)O)cc2F)CCC1` (single isomer, unassigned) [Compound 103ba, (R,R) or (R,S)-3-fluoro-5-(2-hydroxypropan-2-yl)-N′-((3-methyl-1,2,3,5,6,7-hexahydrodicyclo-penta[b,e]pyridin-8-yl)carbamoyl)thiophene-2-sulfonimidamide], the IC50 under setting [5] is 0.008 to 0.04 µM.
On to `CCn1cc(Cl)c(S(N)(=O)=NC(=O)Nc2c(C)c(C(F)(F)F)nc3c2CCC3)n1` (single isomer, unassigned) [Compound 729b, (R) or (S)-4-Chloro-1-ethyl-N′-((3-methyl-2-(trifluoromethyl)-6,7-dihydro-5H-cyclopenta[b]pyridin-4-yl)carbamoyl)-1H-pyrazole-3-sulfonimidamide], for which, under setting [1], the IC50 lay in the range of 0.04 to 0.2 µM.
`CCn1cc(F)c(S(N)(=O)=NC(=O)Nc2c3c(nc4c2CCC4(C)C)CCC3)n1` (single isomer, unassigned) [Example 715, (R) or (S)-N′-((3,3-dimethyl-1,2,3,5,6,7-hexahydrodicyclopenta[b,e]pyridin-8-yl)carbamoyl)-1-ethyl-4-fluoro-1H-pyrazole-3-sulfonimidamide]: the IC50 (Table B3, hTHP-1 assay, class symbols, read-out: IC50) was below 0.008 µM.
Consider `CC1(C)CCc2c1nc1c(c2NC(=O)N=S(N)(=O)c2cc([C@](C)(O)CO)cs2)CCC1` (stereo partly drawn) [Example 623, 4-((S)-1,2-dihydroxypropan-2-yl)-N′-((3,3-dimethyl-1,2,3,5,6,7-hexahydrodicyclopenta[b,e]pyridin-8-yl)carbamoyl)thiophene-2-sulfonimidamide], for which the IC50 under setting [3] was in the range of 0.2 to 1 µM.
As for `Cc1c(C(F)F)nc2c(c1NC(=O)N=S(N)(=O)c1cnc(C(C)(C)O)s1)CCC2` (single isomer, unassigned) [Compound 647b, (S) or (R)-N′-((2-(difluoromethyl)-3-methyl-6,7-dihydro-5H-cyclopenta[b]pyridin-4-yl)carbamoyl)-2-(2-hydroxypropan-2-yl)thiazole-5-sulfonimidamide], the IC50 under setting [6] is above 30 µM.
Take `CC1(C)CCc2c1nc1c(c2NC(=O)N=S(N)(=O)c2sc(C(C)(O)CO)cc2F)CCC1` (single isomer, unassigned) [Compound 640a, (R, R) and (S, R) or (R, S) and (S, S)-5-(1,2-Dihydroxypropan-2-yl)-N′-((3,3-dimethyl-1,2,3,5,6,7-hexahydrodicyclopenta [b,e]pyridin-8-yl)carbamoyl)-3-fluorotliophene-2-sulfonimidamide]: under setting [1], the IC50 was in the range of 0.008 to 0.04 µM.
As to `CC1(C)CCc2c1nc1c(c2NC(=O)N=S(N)(=O)c2ccn(C(F)F)n2)CCC1` (stereo not shown) [Compound 122, 1-(difluoromethyl)-N′-((3,3-dimethyl-1,2,3,5,6,7-hexahydrodicyclopenta[b,e]pyridin-8-yl)carbamoyl)-1H-pyrazole-3-sulfonimidamide], under setting [4], the IC50 lay within 0.2 to 1 µM.
`CC1(C)CCc2c1nc1c(c2NC(=O)N=S(N)(=O)c2cnc(C(C)(O)CO)s2)CCC1` (stereo not shown) [Compound 201, 2-(1,2-Dihydroxypropan-2-yl)-N′-((3,3-dimethyl-1,2,3,5,6,7-hexahydrodicyclopenta [b,e]pyridin-8-yl)carbamoyl)thiazole-5-sulfonimidamide]: the IC50 under setting [1] is 0.2 to 1 µM.
